# In patent US8124655B2, “Use of LR-90 and LR-102 to overcome insulin resistance” (City of Hope, priority 2007, dated 2012):
# How the values were obtained:
# [1] = tested on: Zucker diabetic fatty (ZDF) rat; test: Metabolic parameters of ZDF rats treated with LR-90 (Example 1); assay type: in vivo
# Protocol: As noted, previous studies have shown that LR-90, a new inhibitor of AGE formation, prevented the development of experimental type 1 diabetic nephropathy. In the present Example, the effects of LR-90 were examined in the Zucker diabetic fatty (ZDF) rat, a model of type 2 diabetes and metabolic syndrome, and the mechanisms by which it may protect against renal injury were investigated. In this Example, male ZDF rats were treated without or with LR-90 from age 13 to 40 weeks. Metabolic and kidney functions and renal histology were evaluated. AGE accumulation and the production of the receptor for AGE (AGER) were measured. Profibrotic growth factors, extracellular matrix proteins and intracellular signalling pathways associated with glomerular and tubular damage were also analysed. […] RenalAGE, AGER and lipid peroxidation were all attenuated by LR-90. […] This was associated with reduction in glomerulosclerosis and tubulointerstitial fibrosis, concomitant with marked inhibition of renal overproduction of TGF-β1, connective tissue growth factor, fibronectin and collagen IV.
# (§1) All animal studies were carried out in compliance with policies outlined in The Guide for the Care and Handling of Laboratory Animals (NIH Publication No. 85-23) that have been approved by the City of Hope Animal Care Committee. Male ZDF (fa/fa) and male Zucker lean (+/+; ZL) rats were obtained at the age of 5 weeks from Charles River Laboratories (Wilmington, Mass., USA). Animals were maintained with free access to Purina 5008 rat chow (Purina Mills, St Louis, Mo., USA) and tap water. All animals were individually housed in a controlled room with a 12 h dark-light cycle. At the age of 13 weeks, the animals were divided into the following groups: (1) ZL rats (n=6); (2) ZDF rats without treatment (n=6); and (3) ZDF rats treated with LR-90 at 50 mg/l in their drinking water (ZDF90, n=6). The dose of LR-90 was chosen after previous experiments with type 1 diabetic nephropathy. Food, water intake, body weight and blood glucose levels were monitored periodically. Systolic blood pressure was measured by tail-cuff plethysmography (CODA2 Blood Pressure System; Kent Scientific, Torrington, Conn., USA). Animals were killed at the age of 40 weeks by over-anaesthetisation with isoflurane and cardiac puncture. Blood samples were collected from each animal and transferred accordingly into heparinised vacutainer tubes; they were later centrifuged (1,500×g for 10 min at 4° C.) for plasma isolation. The kidneys were removed immediately, rinsed in PBS and weighed, after which specimens were snap-frozen in liquid nitrogen or fixed in 10% (vol./vol.) neutral buffered formalin for further biochemical and histological analyses. Plasma glucose, lipids and Nε-(carboxymethyl)lysine-AGE Plasma glucose was measured using a glucose analyzer (2300 STAT; YSI, Yellowsprings, Ohio, USA). Total plasma triacylglycerol and cholesterol concentrations were quantified using the Vitros 250 Chemistry System (Johnson & Johnson, Rochester, N.Y., USA). Nε-(Carboxymethyl)lysine (CML)-AGE was liberated from plasma proteins by acid hydrolysis and then measured by ion-pair reversed-phase liquid chromatography/tandem mass spectrometry as described previously.
# [2] = tested on: Zucker diabetic fatty (ZDF) rat; test: Renal function: urinary albumin and total protein excretion, kidney weights (Example 1); assay type: in vivo
# Protocol: as §1
# Renal function was assessed by measuring urinary albumin and total protein excretion. Prior to killing, rats were housed in metabolism cages for 24 h urine collection. Urinary albumin was quantified using the Nephrat kit according to manufacturer's instructions. Total urinary protein was measured using a kit (DC Assay; Bio-Rad Laboratories, Hercules, Calif., USA).
# [3] = tested on: TGF-β1, CTGF, fibronectin and collagen IV; test: Renal TGF-β1, CTGF and ECM proteins by RT-PCR, western blot and immunostaining; assay type: in vivo, rat
# From the text: Tissue sections were deparaffinised by sequential exposure to xylene and ethanol, dehydrated and then exposed to H2O2 to eliminate endogenous peroxidase activity. The kidney sections were then blocked with 2% (wt/vol.) BSA and exposed to specific antibodies against AGE, AGER, TGF-β1, CTGF, fibronectin and collagen type IV. Biotinylated anti-rabbit or anti-mouse IgG was then applied as a secondary antibody, followed by horseradish peroxidase conjugated streptavidin. The staining was visualised by reaction with 3,3′-diaminobenzidine tetrahydrochloride and then counterstained with haematoxylin. All the sections were examined by light microscopy (Olympus AX70) and photographed with Retiga 2000R camera.
# Renal cortical tissues were homogenised in PBS buffer with 1% (vol./vol.) Nonidet P-40, 0.5% (wt/vol.) sodium deoxycholate, 0.1% (wt/vol.) SDS and protease inhibitor mixture (Roche, Indianapolis, Ind., USA). Homogenates were centrifuged for 15 min at 4° C. and at 12,000 rpm and the supernatant fractions collected and stored at −70° C. Nuclear extracts were prepared as described previously. Protein concentrations were measured using the Bio-Rad DC Assay kit. Total RNA was isolated using the RNA-STAT-60 reagent (Tel-Test, Friendswood, Tex., USA). Western blot assay Protein samples (50 μg) were separated on 10 to 20% gradient Tris-glycine Criterion gels (Bio-Rad) and then transferred to nitrocellulose membranes. The membranes were blocked with 5% (wt/vol.) skimmed milk in PBS before incubation with anti-TGF-β1, anti-CTGF, anti-AGER, anti-phospho-p38 MAPK, anti-phospho-p44/42 MAPK and anti-p65 NF-κB antibodies. Immunoreactive proteins were detected by enhanced chemiluminescence (Western Lightning Chemiluminescence Reagent; Perkin-Elmer, Waltham, Mass., USA) using horseradish peroxidase-labelled secondary antibodies. Equal amounts of protein loading were confirmed by restaining the membranes with antibodies against β-actin, p38 MAPK or p44/42 MAPK for cytosolic extracts or with histone H2B for nuclear extracts. Band intensities were quantified using a densitometer (Quantity One, Bio-Rad). Reverse transcriptase-polymerase chain reaction Total RNA (1 μg) was used for the RT reaction using the GeneAmp RNA PCR kit (Applied Biosystems, Foster City, Calif., USA). Total cDNA was then used in PCR reactions containing gene specific primers [Electronic supplementary material (ESM) Table 1] paired with Quantum 18S rRNA internal standards (Ambion, Austin, Tex., USA). Multiplex PCR reactions were performed in a GeneAmp 9700 (Applied Biosystems). […] The densities of amplified products corresponding to specific genes and 18S rRNA were quantified with Quantity One software (Bio-Rad). Results are expressed as the means of the ratios of Tgfb1, Ctgf or Ager band densities to the 18S rRNA band density.
# [4] = ZDF rats, LR-90 50 mg/l in drinking water, at 40 weeks of age, mean ± SEM
# [5] = kidneys of ZDF rats, to almost similar levels as in ZL rats
compound,measurement,setting,value
"CC(C)(Oc1ccc(NC(=O)Nc2ccc(Cc3ccc(NC(=O)Nc4ccc(OC(C)(C)C(=O)O)cc4)c(Cl)c3)cc2Cl)cc1)C(=O)O [LR-90, methylene bis[4,4′-(2-chlorophenylureidophenoxyisobutyric acid)]]",effect on blood pressure,"[1]; ZDF rats, Example 1","modest, but not statistically significant effects"
same,effect on hyperglycaemia,"[1]; ZDF rats, Example 1","modest, but not statistically significant effects"
same,Plasma Cholesterol,[1]; [4],6.3 ± 0.3 mmol/L
same,Plasma Triglycerides,[1]; [4],4.4 ± 0.6 mmol/L
same,Plasma glucose,[1]; [4],25.0 ± 2.3 mmol/L
same,Mean Systolic BP,"[1]; ZDF rats, LR-90 50 mg/l in drinking water, at 40 weeks of age, tail-cuff, mean ± SEM",144 ± 6 mm Hg
same,reduction of plasma cholesterol,"[1]; vs untreated ZDF rats, p<0.05",~30%
same,reduction of plasma triacylglycerol,"[1]; vs untreated ZDF rats, p<0.05",~55%
same,Mean Kidney Weights,[2]; [4],4.23 ± 0.27 g
same,Relative Kidney Weights,[2]; [4],12.23 ± 0.78 g/kg
same,Total Urinary Protein,[2]; [4],176.4 ± 43.3 mg/24 h
same,Urinary Albumin,[2]; [4],25.8 ± 4.8 mg/24 h
same,Urine Volume,[2]; [4],137 ± 24 mL/day
same,prevention of increase in total urinary protein,"[2]; vs untreated ZDF rats, p<0.01",67%
same,prevention of increase in urinary albumin,"[2]; vs untreated ZDF rats, p<0.05",42%
same,mRNA expression and protein production of CTGF,[3]; kidneys of ZDF animals,significantly attenuated
same,mRNA expression and protein production of TGF-β1,[3]; kidneys of ZDF animals,significantly attenuated
same,positive immunostaining for collagen IV,[3]; [5],markedly reduced
same,positive immunostaining for fibronectin,[3]; [5],markedly reduced
